By EC50 is commonly meant the concentration that produces a half-maximal response. Read a high EC50 as a need for much substance.

Bounds are passed on as bounds.

In this assay the test system is U251. As to the kind of experiment: U251 Vacuolization Assay (24h). Type of assay: cell-based. The settings on record: Homo sapiens, U-251. The procedure:
As used herein the term “EC50 (μM)” refers to the μM concentration of a compound that is required for 50% activity in a vacuolization assay.
Example A—U251 Vacuolization Assay Data (24h) for Compounds of Examples 8-56

As to `Cc1ccccc1Nc1nc(N/N=C/c2c[nH]c3ccccc23)nc(N2CCOCC2)n1` [Example 19, {4-[N′-(1H-Indol-3-ylmethylene)-hydrazino]-6-morpholin-4-yl-[1,3,5]triazin-2-yl}-o-tolyl-amine], the EC50 was not above 1 µM.

On to `Cc1ccc(Nc2cc(N/N=C/c3c[nH]c4ccccc34)nc(N3CCOCC3)n2)cc1` [Example 39], for which the EC50 lay within 1 to 10 µM. Then `Cc1ccc(Nc2nc(N/N=C/c3c[nH]c4ccccc34)nc(N3CCSCC3)n2)cc1` [Example 38, (E)-4-(2-((1H-Indol-3-yl)methylene)hydrazinyl)-6-thiomorpholino-N-(p-tolyl)-1,3,5-triazin-2-amine], with more than 50 µM; and `Brc1ccc(Nc2nc(N/N=C/c3c[nH]c4ccccc34)nc(N3CCOCC3)n2)cc1` [Example 21, (E)-4-(2-((1h-indol-3-yl)methylene)hydrazinyl)-n-(4-bromophenyl)-6-morpholino-1,3,5-triazin-2-amine], with not above 1 µM; and `CN(C)c1ccc(Nc2nc(N/N=C/c3c[nH]c4ccccc34)nc(N3CCOCC3)n2)cc1` [Example 34, (E)-N1-(4-(2-((1H-indol-3-yl)methylene)hydrazinyl)-6-morpholino-1,3,5-triazin-2-yl)-N4,N4-dimethylbenzene-1,4-diamine], with not above 1 µM.

With `Cc1ccc(Nc2nc(NCCO)nc(N/N=C/c3c[nH]c4ccccc34)n2)cc1` [Example 13, 2-{4-[N′-(1H-Indol-3-ylmethylene)-hydrazino]-6-p-tolylamino-[1,3,5]triazin-2-ylamino}-ethanol], the EC50 is more than 50 µM.

The molecule `O=[N+]([O-])c1ccc(Nc2nc(N/N=C/c3c[nH]c4ccccc34)nc(N3CCOCC3)n2)cc1` [Example 26, (E)-4-(2-((1H-indol-3-yl)methylene)hydrazinyl)-6-morpholino-N-(4-nitrophenyl)-1,3,5-triazin-2-amine] showed an EC50 not above 1 µM. Regarding `Nc1ccc(Nc2nc(N/N=C/c3c[nH]c4ccccc34)nc(N3CCOCC3)n2)cc1` [Example 27, N1-(4-(2-((1h-indol-3-yl)methylene)hydrazinyl)-6-morpholino-1,3,5-triazin-2-yl)benzene-1,4-diamine], the EC50 is not above 1 µM. The molecule `Cc1cccc(Nc2nc(N/N=C/c3c[nH]c4ccccc34)nc(N3CCOCC3)n2)c1` [Example 9, {4-[N′-(1H-Indol-3-ylmethylene)-hydrazino]-6-morpholin-4-yl-[1,3,5]triazin-2-yl}-m-tolyl-amine] registered an EC50 not above 1 µM.

Take `Cc1ccc(Nc2nc(N/N=C/c3c[nH]c4ccccc34)nc(N(CCO)CCO)n2)cc1` [Example 14, 2-((2-Hydroxy-ethyl)-{4-[N′-(1H-indol-3-ylmethylene)-hydrazino]-6-p-tolylamino-[1,3,5]triazin-2-yl}-amino)-ethanol]: the EC50 is more than 50 µM. `Cc1[nH]c2ccccc2c1/C=N/Nc1nc(Nc2ccc([N+](=O)[O-])cc2)nc(N2CCCCCC2)n1` [Example 56, (E)-4-(azepan-1-yl)-6-(2-((2-methyl-1H-indol-3-yl)methylene)hydrazinyl)-N-(4-nitrophenyl)-1,3,5-triazin-2-amine] returned an EC50 of more than 50 µM.

Molecule `Cc1ccc(Nc2nc(N/N=C/c3c[nH]c4ccccc34)nc(N3C4CCC3COC4)n2)cc1` [Example 52, (E)-4-(2-((1H-Indol-3-yl)methylene)hydrazinyl)-6-(3-oxa-8-azabicyclo[3.2.1]octan-8-yl)-N-(p-tolyl)-1,3,5-triazin-2-amine] displayed an EC50 of 1 to 10 µM. Then `Cc1ccc(Nc2nc(N/N=C/c3ccccn3)nc(N3CCOCC3)n2)cc1` [Example 43, [4-Morpholin-4-yl-6-(N′-pyridin-2-ylmethylene-hydrazino)-[1,3,5]triazin-2-yl]-p-tolyl-amine], with 1 to 10 µM. Then `CC(=O)Nc1ccc(Nc2nc(N/N=C/c3c[nH]c4ccccc34)nc(N3CCOCC3)n2)cc1` [Example 28, (E)-N-(4-((4-(2-((1H-indol-3-yl)methylene)hydrazinyl)-6-morpholino-1,3,5-triazin-2-yl)amino)phenyl)acetamide], with not above 1 µM; and `Clc1ccc(Nc2nc(N/N=C/c3c[nH]c4ccccc34)nc(N3CCOCC3)n2)cc1` [Example 11, (E)-4-(2-((1h-indol-3-yl)methylene)hydrazinyl)-n-(4-chlorophenyl)-6-morpholino-1,3,5-triazin-2-amine], with not above 1 µM.

The molecule `Cc1ccc(Nc2nc(N/N=C/c3c[nH]c4ccccc34)nc(N3CCC(O)CC3)n2)cc1` [Example 37, (E)-1-(4-(2-((1H-Indol-3-yl)methylene)hydrazinyl)-6-(p-tolylamino)-1,3,5-triazin-2-yl)piperidin-4-ol] gave an EC50 of more than 50 µM. Then `Cc1ccc(Nc2nc(N/N=C/c3c[nH]c4ccccc34)nc(N3CCN(C)CC3)n2)cc1` [Example 17, [4-[N′-(1H-Indol-3-ylmethylene)-hydrazino]-6-(4-methyl-piperazin-1-yl)-[1,3,5]triazin-2-yl]-p-tolyl-amine], with more than 50 µM; and `Cc1ccc(Nc2nc(N/N=C/c3c[nH]c4ccccc34)nc(N3CCNCC3)n2)cc1` [Example 18, {4-[N′-(1H-Indol-3-ylmethylene)-hydrazino]-6-piperazin-1-yl-[1,3,5]triazin-2-yl}-p-tolyl-amine], with more than 50 µM; and `Cc1ccc(Nc2cc(N3CCOCC3)nc(N/N=C/c3c[nH]c4ccccc34)n2)cc1` [Example 41, {2-[N′-(1H-indol-3-ylmethylene)-hydrazino]-6-morpholin-4-yl-pyrimidin-4-yl}-p-tolyl-amine], with 1 to 10 µM. With `Cc1ccc(Nc2nc(N/N=C/c3c[nH]c4ccccc34)nc(N3CCc4ccccc4C3)n2)cc1` [Example 47, (E)-4-(2-((1H-Indol-3-yl)methylene)hydrazinyl)-6-(3,4-dihydroisoquinolin-2(1H)-yl)-N-(p-tolyl)-1,3,5-triazin-2-amine] the figure was not above 1 µM; with `Clc1cccc(Nc2nc(N/N=C/c3c[nH]c4ccccc34)nc(N3CCOCC3)n2)c1` [Example 25, (3-Chloro-phenyl)-{4-[N′-(1H-indol-3-ylmethylene)-hydrazino]-6-morpholin-4-yl-[1,3,5]triazin-2-yl}-amine], not above 1 µM; with `Cc1ccc(Nc2nc(N/N=C\c3cccnc3)nc(N3CCOCC3)n2)cc1` [Example 23, [4-Morpholin-4-yl-6-(N′-pyridin-3-ylmethylene-hydrazino)-[1,3,5]triazin-2-yl]-p-tolyl-amine], 1 to 10 µM. Regarding `Cc1ccc(Nc2nc(N/N=C/c3c[nH]c4ccccc34)nc(N3CCCCC3)n2)cc1` [Example 15, {4-[N′-(1H-Indol-3-ylmethylene)-hydrazino]-6-piperidin-1-yl-[1,3,5]triazin-2-yl}-p-tolyl-amine], the EC50 was more than 50 µM. In the case of `COC1CCN(c2nc(N/N=C/c3c[nH]c4ccccc34)nc(Nc3ccc(C)cc3)n2)CC1` [Example 49, (E)-4-(2-((1H-Indol-3-yl)methylene)hydrazinyl)-6-(4-methoxypiperidin-1-yl)-N-(p-tolyl)-1,3,5-triazin-2-amine], the EC50 is more than 50 µM.

Molecule `Cc1ccc(Nc2nc(N/N=C/c3c[nH]c4ccccc34)nc(N3CCC3)n2)cc1` [Example 36, (E)-4-(2-((1H-Indol-3-yl)methylene)hydrazinyl)-6-(azetidin-1-yl)-N-(p-tolyl)-1,3,5-triazin-2-amine] came in with a concentration giving a half-maximal response (EC50) of more than 50 µM.
